The results in this text go back to ChEMBL document CHEMBL1139702, “4'-Alkoxyl substitution enhancing the anti-mitotic effect of 5-(3',4',5'-substituted)anilino-4-hydroxy-8-nitroquinazolines as a novel class of anti-microtubule agents” (Bioorg Med Chem Lett, 2006).

Calls of active or inactive are those of the source. The rule behind the calls is not given here.

In experiment [1] the test system is HGC-27. Description: Antiproliferative activity against HGC27 cells at 50 uM by MTT assay. The experiment is classed as functional, cell-based. The settings on record: Homo sapiens. On the technique in general: Formazan colour is commonly taken as a measure of viable cells.
The test system of experiment [2] is A549. Description: Antiproliferative activity against A549 cells by MTT assay. The experiment is classed as functional, cell-based. The settings on record: Homo sapiens.
The subject of experiment [3] is HGC-27. Kind of experiment: Antiproliferative activity against HGC27 cells by MTT assay. The experiment is classed as functional, cell-based. The settings on record: Homo sapiens.
Experiment [4] has as its system HGC-27. Kind of experiment: Cell cycle arrest in HGC27 cells by accumulation at G2/M phase at 50 uM after 24 hrs. The experiment is classed as functional. Conditions: Homo sapiens, HGC-27, 24 h.
Experiment [5] relates to A549. Description: Cell cycle arrest in A549 cells by accumulation at G2/M phase at 50 uM after 24 hrs. The settings on record: Homo sapiens. The experiment is classed as functional, cell-based.

In the case of `O=[N+]([O-])c1ccc(Nc2ccc(OCc3ccccc3)c(Cl)c2)c2c(O)ncnc12`, the outcome in the experiment with HGC-27 [1] was Active. As for `COc1ccc(Nc2ccc([N+](=O)[O-])c3ncnc(O)c23)cc1Cl`, the IC50 in the experiment with A549 [2] and in the experiment on HGC-27 [3] was 20 µM throughout. As to `O=[N+]([O-])c1ccc(Nc2ccc(OCCCN3CCOCC3)cc2)c2c(O)ncnc12`, in the experiment with HGC-27 [1], the result was Active. On the same count and under the same terms, in the case of `COC(=O)/C=C\c1ccc(C(=O)OCCOc2ccc(Nc3ccc([N+](=O)[O-])c4ncnc(O)c34)cc2)cc1` it was “Active”. The molecule `COc1cc(Nc2ccc([N+](=O)[O-])c3ncnc(O)c23)cc(OC)c1OC` gave an inhibition at 50 µM in the experiment on HGC-27 [4] of 81%. In addition, the outcome in the experiment with HGC-27 [1] and in the experiment on A549 [5] was Active.

Usually IC50 stands for the concentration that gives 50% inhibition. Low values mean greater potency in that assay, high ones weaker potency in that assay. As usually defined, the inhibition is the share of the control response that was lost under treatment. A low value points to a response near the control.
